Laboratory results: patent publication US11312769B2, “Anti-TMEFF1 antibodies and antibody drug conjugates” (Bluefin BioMedicine, Inc., priority 2017, dated 2022)

Legend:
H1048 cells = assay: Growth inhibition and isobologram/combination index, H1048; type: cell-based, human; conditions: for IC50: H1048, 5 days, alone; for effect of combination with 30C10-PBD: H1048 cells
Protocol: (§1) Two SCLC cell lines H526 and H1048, which expresses ˜2,500 copies of TMEFF1 on the cell surface per cell, were seeded onto 96 well plates at 2,000 cells/well on the day of treatment. To distinguish synergy from additivity of the combination of 30C10-PBD with niraparib (selleckchem, Cat # S2741), etoposide (Cell Signaling Technology, Cat #2200S) or cisplatin (Sigma, Cat # P4394), for each combination, a specific isobologram was constructed and the combination-index was calculated as described by Chou, TC and Talalay P (Quanttative analysis of dose-effect relationships: the combined effects of multiple drugs or enzyme inhibitors, Adv Enzyme Regul, 1984). IC50 value was defined as the drug concentration reducing by 50% the growth of treated cells compared with control. IC50 values of each drug was determined by plating H526 or H1048 cells and adding 30C10-PBD, niraparib, etoposide or cisplatin at 10-fold dilutions spanning their probable range of activity. Concentrations ranging from 0.0001-1 ug/ml were used for 30C10-PBD, from 0.01 to 100 uM for Niraparib, from 0.001-10 uM for etoposide and from 0.01-100 uM for cisplatin. Cell viability was measured 5 days later by CellTiter Glo® Luminescent Cell viability Assay™ (Promega, Madison, Wis.) according to manufacturer's instructions. Each IC50 was graphically derived from the growth curve graphed by Prism™ showing percent survival vs log drug concentrations.
(§2) Combination-index (CI) was defined as follows: CI=[C]A50/IC50A+[C]B50/IC50B, where [C]A50 and [C]B50 are the concentrations in combination inducing the IC50 effect. A CI of less than, equal to, or more than 1 indicates, respectively, synergy, additivity, or antagonism.
(§3) The 50% growth-inhibitory activity of the drug combinations was measured after 5 days of treatment. The line of additivity for the isobologram was constructed by interpolating the two points corresponding to the IC50 of the two drugs alone. Graphically, synergy, additivity, and antagonism are indicated by a point plotted below, on, or above the line of additivity, respectively.

H526 cells = assay: Growth inhibition and isobologram/combination index, H526; type: cell-based, human; conditions: for IC50: H526, 5 days, alone; for effect of combination with 30C10-PBD: H526 cells
Protocol: as §1, §2, §3

[1] = H1048, combination with 30C10-PBD 0.1 ng/ml
[2] = H1048, combination with 30C10-PBD 0.3 ng/ml
[3] = H526, combination with 30C10-PBD 0.3 ng/ml
[4] = H526, combination with 30C10-PBD 0.6 ng/ml

For `N.N.[Cl][Pt][Cl]` [Cisplatin, cisplatin], the IC50 (H1048 cells) was 620 nM, the CI (H1048 cells; [1]) was 0.985 and the effect (H1048 cells; [1]) was “additive”. For the same molecule, the CI (H1048 cells; [2]) was 1.008, the effect (H1048 cells; [2]) was “additive” and the “effect of combination with 30C10-PBD” value (H1048 cells) was “additive effects”. For the same molecule, the IC50 (H526 cells) was 240 nM, the CI (H526 cells; [3]) was 0.865 and the effect (H526 cells; [3]) was “synergy (A CI of less than, equal to, or more than 1 indicates, respectively, synergy, additivity, or antagonism)”. For the same molecule, the CI (H526 cells; [4]) was 0.703, the effect (H526 cells; [4]) was “synergy (A CI of less than, equal to, or more than 1 indicates, respectively, synergy, additivity, or antagonism)” and the “effect of combination with 30C10-PBD” value (H526 cells) was “synergistic effects”.

`COc1cc([C@@H]2c3cc4c(cc3[C@@H](O[C@@H]3O[C@@H]5CO[C@@H](C)O[C@H]5[C@H](O)[C@H]3O)[C@H]3COC(=O)[C@H]23)OCO4)cc(OC)c1O` [Etoposide, etoposide] was tested, and the IC50 (H1048 cells) was 160 nM, the CI (H1048 cells; [1]) was 0.932 and the effect (H1048 cells; [1]) was “synergy (A CI of less than, equal to, or more than 1 indicates, respectively, synergy, additivity, or antagonism)”. The effect (H1048 cells; H1048, combination with 30C10-PBD 0.1 ng/ml, listed as etoposide) was “synergistic effect”, the CI (H1048 cells; [2]) was 0.998 and the effect (H1048 cells; [2]) was “additive”. For the same molecule, the effect (H1048 cells; H1048, combination with 30C10-PBD 0.3 ng/ml, listed as etoposide) was “additive effect”, the IC50 (H526 cells) was 330 nM and the CI (H526 cells; [3]) was 0.847. The effect (H526 cells; [3]) was “synergy (A CI of less than, equal to, or more than 1 indicates, respectively, synergy, additivity, or antagonism)”, the CI (H526 cells; [4]) was 0.801 and the effect (H526 cells; [4]) was “synergy (A CI of less than, equal to, or more than 1 indicates, respectively, synergy, additivity, or antagonism)”. For the same molecule, the “effect of combination with 30C10-PBD” value (H526 cells) was “synergistic effect”.

In the case of `NC(=O)c1cccc2cn(-c3ccc([C@@H]4CCCNC4)cc3)nc12` [Niraparib, niraparib], the CI (H1048 cells; [1]) is reported as 0.949, the effect (H1048 cells; [1]) is reported as “synergy (A CI of less than, equal to, or more than 1 indicates, respectively, synergy, additivity, or antagonism)” and the CI (H1048 cells; [2]) is reported as 0.888. For the same molecule, the effect (H1048 cells; [2]) was “synergy (A CI of less than, equal to, or more than 1 indicates, respectively, synergy, additivity, or antagonism)”, the “effect of combination with 30C10-PBD” value (H1048 cells) was “Synergistic effect” and the IC50 (H1048 cells; Homo sapiens, NCI-H1048, 120 h) was 1070 nM. For the same molecule, the CI (H526 cells; [3]) was 0.762, the effect (H526 cells; [3]) was “synergy (A CI of less than, equal to, or more than 1 indicates, respectively, synergy, additivity, or antagonism)” and the CI (H526 cells; [4]) was 0.619. For the same molecule, the effect (H526 cells; [4]) was “synergy (A CI of less than, equal to, or more than 1 indicates, respectively, synergy, additivity, or antagonism)”, the “effect of combination with 30C10-PBD” value (H526 cells) was “Synergistic effect” and the IC50 (H526 cells; Homo sapiens, NCI-H526, 120 h) was 3240 nM.
